Test results reported in US12492212B2, “Substituted pyrazolecarboxamides as sting activators” (Shanghai Institute of Materia Medica, Chinese Academy of …, priority 2019, dated 2025).

Tests used:
STING [1] = biological target: T1, STING (Homo sapiens, UniProt Q86WV6); assay: IFN β release from human PBMC cells stimulated by compound (ELISA); type: cell-based; conditions: LPS 10 ng/ml, cultured overnight
T1 construct: host or cells: human PBMCs
Experimental: Example 23: Activation Effect of Compound on Type I Interferon Pathway (ISG) Produced by Human Peripheral Blood Mononuclear Cell Line PBMC Cells
In this experiment, the function of STING agonist was evaluated by detecting the changes of type I interferon IFN β produced by compound stimulating human peripheral blood mononuclear cell line PBMC cells (AllCells, Cat #: PB005F). Before use, cryopreserved PBMCs were thawed in RPMI1640 medium and resuscitated overnight. The test compound was dissolved into DMSO and formulated as a mother liquor with a concentration of 10 mM. Before testing, the compound was diluted to 100 times of the working concentration (the working concentration was 30, 10, 3.33, 1.11, 0.370, 0.123, 0.0412, 0.0137 uM, respectively). PBMCs were collected and adjusted to a cell concentration of 5×10^5/ml. LPS was added to PBMCs at a final concentration of 10 ng/ml. In the 96-well cell culture plate, 200 ul PBMCs (1×10^5 cells per well) were added to each well. Then 2 ul diluted compound per well (duplicate wells, the final concentration of DMSO in each well was 1%) was added. Then a pipette was used to carefully mix the cells and the compound evenly. 2 ul DMSO (1% of final concentration) was added to the negative control. The cells were cultured overnight in an incubator at 37° C. The cell culture supernatant was collected to detect the concentration of type I interferon IFN β. The concentration of IFNβ was determined by ELISA kit of solid-phase antibody R&D-MAB8144-100 and detecting antibody R&D-MAB8143-100 (Biotinylated), converted into […] concentration according to standard curve, and EC50 value was calculated by GraphPad 5.0 fitting calibration curve.

STING [2] = biological target: T2, STING (Homo sapiens, UniProt Q86WV6, G230A/H232R/R293Q/R71H); assay: Type I interferon pathway (ISG) luciferase reporter in human THP1-Dual cells; type: cell-based; conditions: test concentration 10 μM, 24 hours, ratio of LUM of compound to LUM of blank control
T2 construct: THP1-Dual cells in the experiment were purchased from InvivoGen company; host or cells: THP1-Dual cells
Experimental: In this experiment, the ability of compounds to activate STING was evaluated by detecting the ability of compounds to stimulate the production of IFN-β in human peripheral blood mononuclear cell line THP1-Dual cells. THP1-Dual cells in the experiment were purchased from InvivoGen company. […] THP1-Dual cells were counted, cell concentration was adjusted to be 1×10^6/ml, and 180 μl of cells was added to each well for incubation. […] In addition, the blank group was added with 200 μl of culture solution. After 24 hours, 20 μl of culture solution was took from each well to a new bottom transparent 96-well plate, and 50 μl luciferase detection reagent QUANTI-Luc™ was added, the fluorescence value was immediately determined. […] The data were described by the ratio of the LUM of compound to the LUM of blank control.

EMT6 breast cancer = EMT6 breast cancer orthotopic transplantation tumor model; type: in vivo, Balb/C female mice; conditions: EMT6, Balb/C mice, 1 mg/kg, 1st, 4th and 9th days after grouping, vs negative control, FIG. 2
Experimental: Example 26: The Efficacy Study of the Compound of the Present Invention in the EMT6 Breast Cancer Orthotopic Transplantation Tumor Model
In this experiment, 4-6 weeks old Balb/C female mice were used, and EMT6 cells (2.5*10^5) were injected subcutaneously into axils of each mouse. The tumor growth of mice was observed. Grouping was started when the tumor volume was 50-100 mm^3. The compound 19 of the present invention and the negative control were administrated on 1st, 4th and 9th days after grouping. The dosage of compound 19 of the present invention was 1 mg/kg. The experimental results were evaluated in the form of tumor volume growth curves, and the experimental results were shown in FIG. 2.

CT26 colon cancer = CT26 colon cancer subcutaneous transplantation tumor model; type: in vivo, Balb/C female mice; conditions: CT26, Balb/C mice, 0.1 mg/kg and 0.3 mg/kg, 1st, 4th and 7th days after grouping, vs negative control, FIG. 1
Experimental: Example 25: The Efficacy Study of the Compound of the Present Invention in the CT26 Colon Cancer Subcutaneous Transplantation Tumor Model
In this experiment, 4-6 weeks old Balb/C female mice were used, and CT26 cells (2.5*10^5) were injected subcutaneously into axils of each mouse. The tumor growth of mice was observed. Grouping was started when the tumor volume was 50-100 mm^3. The compound 19 of the present invention and the negative control were administrated. The compound 19 of the present invention and the negative control were administrated on 1st, 4th and 7th days after grouping. The dosage of the compound 19 in each group was 0.1 mg/kg and 0.3 mg/kg respectively. The experimental results were evaluated in the form of tumor volume growth curves, and the experimental results were shown in FIG. 1.

T2 sequence (Q86WV6 whole entry R71H/G230A/H232R/R293Q): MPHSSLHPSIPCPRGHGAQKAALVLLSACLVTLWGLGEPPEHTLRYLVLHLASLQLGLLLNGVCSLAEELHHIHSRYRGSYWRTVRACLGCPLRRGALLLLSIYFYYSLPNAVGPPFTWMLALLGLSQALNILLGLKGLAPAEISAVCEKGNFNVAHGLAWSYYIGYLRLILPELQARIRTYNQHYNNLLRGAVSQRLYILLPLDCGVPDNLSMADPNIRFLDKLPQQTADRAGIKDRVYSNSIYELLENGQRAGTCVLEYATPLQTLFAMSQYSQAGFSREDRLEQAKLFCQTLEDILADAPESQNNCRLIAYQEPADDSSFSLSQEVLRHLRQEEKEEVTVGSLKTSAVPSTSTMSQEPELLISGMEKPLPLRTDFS
T1 sequence (Q86WV6 whole entry H232R): as the sequence (Q86WV6 whole entry R71H/G230A/H232R/R293Q) above, with H71R, A230G, Q293R counted along it

| SMILES | Fold change (Ratio to control) (STING [2]) | also measured |
| --- | --- | --- |
| CCn1nc(C)cc1C(=O)Nc1nc2cc(C(N)=O)cc(OC)c2n1CCCCn1c(NC(=O)c2cc(C)nn2CC)nc2cc(C(N)=O)c3c(c21)CC(C)(C)O3 [Example 1, 1-(4-(5-carbamoyl-2-(1-ethyl-3-methyl-1H-pyrazol-5-formamido)-7-methoxy-1H-benzo[d]imidazol-1-yl)butyl)-2-(1-ethyl-3-methyl-1H-pyrazol-5-formamido)-7,7-dimethyl-7,8-dihydro-1H-benzofuran[4,5-d]imidazol-5-formamide] | – | EC50 (STING [1]): 0.362 µM |
| CCn1nc(C)cc1C(=O)Nc1nc2cc(C(N)=O)cc(OC)c2n1CCCCn1c(NC(=O)c2cc(C)nn2CC)nc2cc(C(N)=O)c3oc(C)cc3c21 [Example 2] | 53.15 | EC50 (STING [1]): 0.103 µM |
| CCn1nc(C)cc1C(=O)Nc1nc2cc(C(N)=O)cc(OC)c2n1C/C=C/Cn1c(NC(=O)c2cc(C)nn2CC)nc2cc(C(N)=O)c3oc(C)cc3c21 [Example 3, (E)-1-(4-(5-carbamoyl-2-(1-ethyl-3-methyl-1H-pyrazol-5-formamido)-7-methoxy-1H-benzo[d]imidazol-1-yl)but-2-en-1-yl)-2-(1-ethyl-3-methyl-1H-pyrazol-5-formamido)-7-methyl-1H-benzofuran[4,5-d]imidazol-5-formamide] | 62.82 | EC50 (STING [1]): 0.00492 µM |
| COc1cc(C(N)=O)cc2nc(NC(=O)c3cc(C)nn3CC3CC3)n(C/C=C/Cn3c(NC(=O)c4cc(C)nn4CC4CC4)nc4cc(C(N)=O)c5oc(C)cc5c43)c12 [Example 5] | 66.65 | – |
| COc1cc(C(N)=O)cc2nc(NC(=O)c3cc(C)nn3CC(F)(F)F)n(C/C=C/Cn3c(NC(=O)c4cc(C)nn4CC(F)(F)F)nc4cc(C(N)=O)c5oc(C)cc5c43)c12 [Example 6] | 86.31 | – |
| C=CCn1nc(C)cc1C(=O)Nc1nc2cc(C(N)=O)cc(OCCCO)c2n1C/C=C/Cn1c(NC(=O)c2cc(C)nn2CC=C)nc2cc(C(N)=O)c3oc(C)cc3c21 [Example 9] | 148.64 | – |
| C#CCn1nc(C)cc1C(=O)Nc1nc2cc(C(N)=O)cc(OCCCO)c2n1C/C=C/Cn1c(NC(=O)c2cc(C)nn2CC#C)nc2cc(C(N)=O)c3oc(C)cc3c21 [Example 10] | 13.14 | – |
| C=CCn1nc(C)cc1C(=O)Nc1nc2cc(C(N)=O)cc(OC3COC3)c2n1C/C=C/Cn1c(NC(=O)c2cc(C)nn2CC=C)nc2cc(C(N)=O)c3oc(C)cc3c21 [Example 18] | 175.49 | – |
| CCn1nc(C)cc1C(=O)Nc1nc2cc(C(N)=O)cc(OCCCN3CCOCC3)c2n1C/C=C/Cn1c(NC(=O)c2cc(C)nn2CC)nc2cc(C(N)=O)c3oc(C)cc3c21 [Example 19] | 90.48 | anti-tumor effect (tumor volume growth curves) (EMT6 breast cancer): significant anti-tumor effect; anti-tumor effect (tumor volume growth curves) (CT26 colon cancer): significant anti-tumor effect |
| Cc1cc(C(=O)Nc2nc3cc(C(N)=O)cc(OCCCN4CCOCC4)c3n2C/C=C/Cn2c(NC(=O)c3cc(C)nn3CC(F)(F)F)nc3cc(C(N)=O)c4oc(C)cc4c32)n(CC(F)(F)F)n1 [Example 20] | 159.71 | – |
| CCn1nc(C)cc1C(=O)Nc1nc2cc(C(N)=O)ccc2n1C/C=C/Cn1c(NC(=O)c2cc(C)nn2CC)nc2cc(C(N)=O)cc(OCCCO)c21 [GSK compound 1, reference compound] | 80.54 | – |
| CCn1nc(C)cc1C(=O)Nc1nc2cc(C(N)=O)cc(OC)c2n1C/C=C/Cn1c(NC(=O)c2cc(C)nn2CC)nc2cc(C(N)=O)cc(OCCCN3CCOCC3)c21 [GSK compound 3, reference compound] | 70.83 | – |
